# US20240174662A1, “SMALL MOLECULE INHIBITORS OF SALT INDUCIBLE KINASES” (Janssen Biotech, Inc., priority 2021, published 2024)
# Molecular target: SIK2 (Homo sapiens (Human), UniProt Q9H0K1)
# Assay: SIK2 Enzymatic Assay Version 2 (High ATP)
# Format: biochemical
# Details: 3 mM ATP and 200 μM HDAC5tide final, ADP-Glo Max luminescence
# Summary of the method: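 Run at room temperature; SIK2 enzyme at 6 nM (2× final) preincubated with compound 30 min before reaction. ADP formation detected by ADP-Glo Max (2 h reagent, 1 h detection) with luminescence read-out.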
# SIK2, sequence (Q9H0K1 whole entry, species assumed): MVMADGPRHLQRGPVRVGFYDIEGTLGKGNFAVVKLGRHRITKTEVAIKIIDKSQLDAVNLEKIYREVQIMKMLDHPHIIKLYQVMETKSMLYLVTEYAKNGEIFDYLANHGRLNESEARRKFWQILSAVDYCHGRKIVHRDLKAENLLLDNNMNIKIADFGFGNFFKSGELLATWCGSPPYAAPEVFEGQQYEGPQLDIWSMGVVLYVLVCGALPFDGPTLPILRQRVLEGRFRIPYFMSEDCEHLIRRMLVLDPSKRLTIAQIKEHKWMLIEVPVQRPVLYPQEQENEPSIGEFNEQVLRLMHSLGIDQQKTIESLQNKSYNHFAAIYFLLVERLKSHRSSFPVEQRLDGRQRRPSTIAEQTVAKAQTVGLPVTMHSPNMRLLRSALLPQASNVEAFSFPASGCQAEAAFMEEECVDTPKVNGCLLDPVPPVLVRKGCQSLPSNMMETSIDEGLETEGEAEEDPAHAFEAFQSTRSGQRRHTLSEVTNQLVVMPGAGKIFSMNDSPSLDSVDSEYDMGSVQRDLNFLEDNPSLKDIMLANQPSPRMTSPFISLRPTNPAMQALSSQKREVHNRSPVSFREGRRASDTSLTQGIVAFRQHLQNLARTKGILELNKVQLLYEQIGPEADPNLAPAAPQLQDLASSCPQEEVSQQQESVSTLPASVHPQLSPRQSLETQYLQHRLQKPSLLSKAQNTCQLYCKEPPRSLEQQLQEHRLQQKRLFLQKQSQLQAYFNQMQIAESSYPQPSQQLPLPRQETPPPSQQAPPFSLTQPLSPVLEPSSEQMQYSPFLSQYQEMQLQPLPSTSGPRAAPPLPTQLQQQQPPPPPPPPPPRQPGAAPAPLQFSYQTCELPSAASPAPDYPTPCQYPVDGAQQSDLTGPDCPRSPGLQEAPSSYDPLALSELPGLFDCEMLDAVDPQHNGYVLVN
row,Structure (SMILES),IC50
1,"Cn1ncc(O[C@H]2CCNC2)c1-c1ccn2nc(NC(=O)C3CC3)cc2c1 [Example 236, N-[5-[2-methyl-4-[(3S)-pyrrolidin-3-yl]oxy-pyrazol-3-yl]pyrazolo[1,5-a]pyridin-2-yl]cyclopropanecarboxamide]",0.0291 µM
2,"Cn1ncc(OC[C@H](N)c2ccccc2)c1-c1ccn2nc(NC(=O)C3CC3)cc2c1 [Example 237, N-[5-[4-[(2R)-2-amino-2-phenyl-ethoxy]-2-methyl-pyrazol-3-yl]pyrazolo[1,5-a]pyridin-2-yl]cyclopropanecarboxamide]",0.0107 µM
3,"CN1CCC[C@@H]1COc1cnn(C)c1-c1ccn2nc(NC(=O)C3CC3)cc2c1 [Example 239, N-[5-[2-methyl-4-[[(2R)-1-methylpyrrolidin-2-yl]methoxy]pyrazol-3-yl]pyrazolo[1,5-a]pyridin-2-yl]cyclopropanecarboxamide]",0.0227 µM
4,"Cn1ncc(OC[C@H]2CCN2CCF)c1-c1ccn2nc(NC(=O)C3CC3)cc2c1 [Example 241, N-[5-[4-[[(2R)-1-(2-fluoroethyl)azetidin-2-yl]methoxy]-2-methyl-pyrazol-3-yl]pyrazolo[1,5-a]pyridin-2-yl]cyclopropanecarboxamide]",0.0035 µM
5,"Cn1ncc(O[C@@H]2CNC[C@@H]2F)c1-c1ccn2nc(NC(=O)C3CC3)cc2c1 [Example 242, N-[5-[4-[(3R,4S)-4-fluoropyrrolidin-3-yl]oxy-2-methyl-pyrazol-3-yl]pyrazolo[1,5-a]pyridin-2-yl]cyclopropanecarboxamide]",0.0083 µM
6,"COCCN1CC[C@@H]1COc1cnn(C)c1-c1ccn2nc(NC(=O)C3CC3)cc2c1 [Example 243, N-[5-[4-[[(2R)-1-(2-methoxyethyl)azetidin-2-yl]methoxy]-2-methyl-pyrazol-3-yl]pyrazolo[1,5-a]pyridin-2-yl]cyclopropanecarboxamide]",0.0113 µM
7,"CC(C)CN1CC[C@@H]1COc1cnn(C)c1-c1ccn2nc(NC(=O)C3CC3)cc2c1 [Example 244, N-[5-[4-[[(2R)-1-isobutylazetidin-2-yl]methoxy]-2-methyl-pyrazol-3-yl]pyrazolo[1,5-a]pyridin-2-yl]cyclopropanecarboxamide]",0.0063 µM
8,"Cn1ncc(OC[C@H]2CCN2CC(C)(C)O)c1-c1ccn2nc(NC(=O)C3CC3)cc2c1 [Example 245, N-[5-[4-[[(2R)-1-(2-hydroxy-2-methyl-propyl)azetidin-2-yl]methoxy]-2-methyl-pyrazol-3-yl]pyrazolo[1,5-a]pyridin-2-yl]cyclopropanecarboxamide]",0.0137 µM
9,"CCCN1CC[C@@H]1COc1cnn(C)c1-c1ccn2nc(NC(=O)C3CC3)cc2c1 [Example 246, N-[5-[2-methyl-4-[[(2R)-1-propylazetidin-2-yl]methoxy]pyrazol-3-yl]pyrazolo[1,5-a]pyridin-2-yl]cyclopropanecarboxamide]",0.0016 µM
10,"Cn1ncc(OC[C@H]2CCN2CC2CC2)c1-c1ccn2nc(NC(=O)C3CC3)cc2c1 [Example 247, N-[5-[4-[[(2R)-1-(cyclopropylmethyl)azetidin-2-yl]methoxy]-2-methyl-pyrazol-3-yl]pyrazolo[1,5-a]pyridin-2-yl]cyclopropanecarboxamide]",0.0027 µM
11,"[2H]C([2H])([2H])N1CCC[C@@H]1COc1cnn(C)c1-c1ccn2nc(NC(=O)C3CC3)cc2c1 [Example 249, N-[5-[2-methyl-4-[[(2R)-1-(trideuteriomethyl)pyrrolidin-2-yl]methoxy]pyrazol-3-yl]pyrazolo[1,5-a]pyridin-2-yl]cyclopropanecarboxamide]",0.0255 µM
12,"CC(=O)CN1CC[C@@H]1COc1cnn(C)c1-c1ccn2nc(NC(=O)C3CC3)cc2c1 [Example 251, N-[5-[4-[[(2R)-1-acetonylazetidin-2-yl]methoxy]-2-methyl-pyrazol-3-yl]pyrazolo[1,5-a]pyridin-2-yl]cyclopropanecarboxamide]",0.0456 µM
